Experiments:
AtPSAT1 [1] = target: T1, AtPSAT1 (Arabidopsis thaliana, UniProt Q96255); experiment: X-ray crystallography: conversion of bound PLP to PMP; assay type: biochemical; conditions: 10 mM Glu added before crystallization; pH 8.5; Glu itself not present in the structure
T1 construct: gene PSAT1; residues 72-430 (71-residue chloroplast transit peptide removed), 359 residues plus N-terminal SNA left after TEV cleavage of His6-tag; E. coli BL21 Gold, pMCSG68; homodimer (~80 kDa by SEC)
T1 sequence (Q96255 72-430): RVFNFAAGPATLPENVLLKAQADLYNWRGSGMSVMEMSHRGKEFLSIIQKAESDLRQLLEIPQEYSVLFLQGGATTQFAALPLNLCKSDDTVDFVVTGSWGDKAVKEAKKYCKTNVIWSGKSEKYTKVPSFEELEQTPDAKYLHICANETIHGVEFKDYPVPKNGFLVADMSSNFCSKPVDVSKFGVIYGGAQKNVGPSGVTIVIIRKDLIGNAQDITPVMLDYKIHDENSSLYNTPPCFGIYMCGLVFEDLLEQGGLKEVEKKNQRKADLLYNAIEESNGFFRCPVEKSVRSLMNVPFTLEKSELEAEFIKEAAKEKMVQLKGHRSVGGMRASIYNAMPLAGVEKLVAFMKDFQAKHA

AtPSAT1 [2] = target: T1, AtPSAT1; experiment: X-ray crystallography, […] Å; assay type: binding; conditions: covalent; internal aldimine (Schiff base) with K265; 1 mM PLP added; pH 8.5, 0.2 M lithium sulfate
AtPSAT1 [3] = target: T1, AtPSAT1; experiment: X-ray crystallography, […] Å; assay type: binding; conditions: PMP formed from PLP by addition of 10 mM Glu; not covalently bound to K265; pH 8.5, 0.2 M lithium sulfate
AtPSAT1 [4] = target: T1, AtPSAT1; experiment: X-ray crystallography, […] Å; assay type: binding; conditions: covalent; PLP-PSer geminal diamine intermediate also bound to K265; cocrystallized with 50 mM PSer, pH 8.5, no lithium sulfate
[5] = target: the molecule itself; experiment: SEC; HiLoad Superdex 200 16/60; 25 mM HEPES pH 7.4, 100 mM KCl, 50 mM NaCl, 1 mM TCEP; protein mass calculated from the retention volume (~80 kDa)

For N[C@@H](CCC(=O)O)C(=O)O [Glu], the “first half-transamination observed in crystal” value (AtPSAT1 [1]) was “electron density maps (Figures 6A,B) revealed the cofactor with the amino group already transferred from Glu”.

For Cc1ncc(COP(=O)(O)O)c(C=O)c1O [PLP], the crystal structure (AtPSAT1 [2]) was “The PLP prosthetic group creates a Schiff base (internal aldimine) between C4′ and Nζ of K265”.

With Cc1ncc(COP(=O)(O)O)c(CN)c1O [PMP] the crystal structure (AtPSAT1 [3]) was “Position of PMP is almost identical as PLP, thus its interactions with the protein are preserved”.

In the case of N[C@@H](COP(=O)(O)O)C(=O)O [PSer], the crystal structure (AtPSAT1 [4]) is reported as “The bound PSer creates several hydrogen bonds in the active site”.

B1: Phosphoserine aminotransferase isoform 1 from Arabidopsis thaliana (AtPSAT1), residues 72-430 (enzyme, UniProt Q96255 72-430, looked up)
chain: T1 sequence (Q96255 72-430)
modifications: PLP covalently bound to the catalytic K265 (internal aldimine, 6czx); PMP not covalently bound (6czy); cofactor covalently bound to both K265 and PSer (geminal diamine, 6czz)
notes: Phosphoserine aminotransferase isoform 1, chloroplastic, Arabidopsis thaliana; subunit of 430 residues including the transit peptide; construct truncated before R72 (71-residue chloroplast transit peptide removed), residues 72-430, 359 residues; After TEV cleavage the N-terminal residues SNA remain in front of R72 (vector pMCSG68); Crystallised with 1 mM PLP; with 10 mM Glu (PMP form) or 50 mM …
In the case of B1, the “stoichiometry N” value [5] is reported as 2.

Source: PMC6043687, “Structural Analysis of Phosphoserine Aminotransferase (Isoform 1) From Arabidopsis thaliana– the Enzyme Involved in the Phosphorylated Pathway of Serine Biosynthesis” (Frontiers in Plant Science, 2018)
